Values after ≈ are worked out from the molar mass of the structure shown. Like-named read-outs stand apart in the source and are kept apart here. Residues, ends and D or L forms follow the SMILES beside them.
Legend:
Candida species = conditions: cited from earlier work
Description: NCR169, a cationic peptide (net charge at pH7 is 1.91) consisting of 38 amino acids with four cysteine residues, is crucial for bacteroid differentiation, and its absence results in no nitrogen fixation but premature nodule senescence. Two NMR structures of NCR169 produced in Escherichia coli resulting from different disulfide bond patterns have been determined by utilizing the ^1H-^15N heteronuclear single-quantum coherence (HSQC) NMR technique.

[1] = tested on: tested bacteria (ESKAPE pathogens, Listeria monocytogenes, Salmonella enterica); format: cell-based; conditions: 3 h, pH 7.4
Procedure, shortened: (§1)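 Log-phase bacteria (~10^7) were exposed for three hours to twofold peptide dilutions from 25 to […] in potassium-phosphate buffer at pH 7.4. Aliquots were then plated on LB agar and incubated overnight at 37 °C. The minimal bactericidal concentration was the lowest dose eliminating all viable bacteria.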

[2] = tested on: Klebsiella pneumoniae (NCTC 13440); format: cell-based; conditions: NCTC 13440, 3 h, pH 7.4
Procedure, shortened: as §1

[3] = tested on: Escherichia coli (ATCC 8739); format: cell-based
Procedure, shortened: as §1

[4] = tested on: Acinetobacter baumannii (ATCC 17978); format: cell-based; conditions: ATCC 17978, 3 h, pH 7.4
Procedure, shortened: as §1

[5] = tested on: Salmonella enterica (ATCC 13076); format: cell-based
Procedure, shortened: as §1

[6] = tested on: Listeria monocytogenes (ATCC 19111); format: cell-based; conditions: ATCC 19111, 3 h, pH 7.4
Procedure, shortened: as §1

[7] = tested on: Staphylococcus aureus (HNCMO112011); format: cell-based
Procedure, shortened: as §1

[8] = tested on: Pseudomonas aeruginosa (ATCC 27853); format: cell-based; conditions: ATCC 27853, 3 h, pH 7.4
Procedure, shortened: as §1

[9] = tested on: Enterococcus faecalis (ATCC 29212); format: cell-based; conditions: Enterococcus faecalis ATCC 29212; ~10^7 log phase bacteria, 3 h in potassium-phosphate buffer (PPB) pH 7.4; peptide 25 to 0.125 μM 2-fold series; 5 μl on LB agar, overnight 37 °C
Procedure, shortened: as §1

S. aureus (ATCC 25923) = format: cell-based, Staphylococcus aureus; conditions: ATCC 25923, 3 h, pH 7.4
Description: (§2) The bacterial strains for the antimicrobial assay were obtained from the ATCC (American Type Culture Collection, Manassas, VA, USA) and NCTC (National Collection of Type Cultures, Salisbury, UK). Gram-negative strains were Pseudomonas aeruginosa (ATCC 27853), Escherichia coli (ATCC 8739, ATCC 35218, and ATCC 25922), Salmonella enterica (ATCC 13076), Klebsiella pneumoniae (NCTC 13440), Acinetobacter baumannii (ATCC 17978) and the Gram-positive strains were Enterococcus faecalis (ATCC 29212), Listeria monocytogenes (ATCC 19111), and Staphylococcus aureus (HNCMO112011 and ATCC 25923).
(§3) Determination of antibacterial activity for the peptides was carried out by utilizing a minimum bactericidal concentration (MBC) bioassay. Synthesized peptides were dissolved in sterile water and used from 25 to 0.125 μM in 2-fold dilution series and incubated with ~10^7 log phase bacteria in Potassium-Phosphate Buffer (PPB, pH: 7.4) for three hours as described earlier. After that, 5 μl of each sample was placed on LB agar and the growth of bacteria was monitored after overnight incubation at 37 °C. The lowest concentration of the antimicrobial agents that completely eliminated viable bacteria was considered the minimal bactericidal concentration (MBC).

E. coli (ATCC 25922) = format: cell-based, Escherichia coli; conditions: ATCC 25922, 3 h, pH 7.4
Description: as §2, §3

E. coli (ATCC 35218) = format: cell-based, Escherichia coli; conditions: ATCC 35218, 3 h, pH 7.4
Description: as §2, §3

[10] = tested on: tested bacteria (ESKAPE pathogens, Listeria monocytogenes, Salmonella enterica); set-up: method as in PMID 32153547; conditions: same bacterial species; cited from earlier work

In the case of `CC[C@H](C)[C@H](NC(=O)[C@H](CCCCN)NC(=O)[C@H](Cc1ccccc1)NC(=O)[C@H](CC(C)C)NC(=O)[C@@H]1CCCN1C(=O)[C@H](CCCCN)NC(=O)[C@H](CCCCN)NC(=O)[C@H](CO)NC(=O)[C@@H](N)CCCCN)C(=O)N[C@@H](Cc1c[nH]c2ccccc12)C(=O)N[C@@H](CCCCN)C(=O)N[C@@H](CS)C(=O)N[C@H](C(=O)N[C@@H](CCC(=O)O)C(=O)N[C@@H](CC(N)=O)C(=O)N[C@H](C(=O)N[C@@H](CS)C(=O)N[C@H](C(=O)N[C@@H](CC(C)C)C(=O)N[C@@H](Cc1c[nH]c2ccccc12)C(=O)N[C@@H](Cc1ccc(O)cc1)C(=O)N[C@@H](CCCCN)C(N)=O)C(C)C)C(C)C)C(C)C` [NCR169C17–38] (H-KSKKPLFKIWKCVENVCVLWYK-NH2; N-terminus assumed), the “antifungal activity against different Candida species” value (Candida species) is listed as “possess antifungal activity”, the “MBC against most or all of the tested bacteria” value [1] is listed as 3.1 µM and the “Minimal bactericidal concentration (MBC) K. p.” value [2] is listed as 3.1 µM (≈ 8.49 µg/mL). For the same molecule, the “Minimal bactericidal concentration (MBC) E. c.” value ([3]; Escherichia coli ATCC 8739, ~10^7 log phase bacteria, 3 h in PPB pH 7.4, peptide 25 to 0.125 μM 2-fold series, plated on LB agar, overnight 37 °C) was 1.6 µM (≈ 4.38 µg/mL), the “Minimal bactericidal concentration (MBC) A. b.” value [4] was 3.1 µM (≈ 8.49 µg/mL) and the “Minimal bactericidal concentration (MBC) S. e.” value ([5]; ATCC 13076, 3 h, pH 7.4) was 3.1 µM (≈ 8.49 µg/mL). The “Minimal bactericidal concentration (MBC) L. m.” value [6] was 3.1 µM (≈ 8.49 µg/mL), the “Minimal bactericidal concentration (MBC) S. a.” value ([7]; HNCMO112011, 3 h, pH 7.4) was 3.1 µM (≈ 8.49 µg/mL) and the “Minimal bactericidal concentration (MBC) P. a.” value [8] was 3.1 µM (≈ 8.49 µg/mL). The “Minimal bactericidal concentration (MBC) E. f.” value [9] was 6.3 µM (≈ 17.3 µg/mL), the “MBC S.a. ATTC 25923” value (S. aureus (ATCC 25923)) was 3.1 µM (≈ 8.49 µg/mL) and the “MBC E.c. ATTC 25922” value (E. coli (ATCC 25922)) was 1.6 µM (≈ 4.38 µg/mL). The “MBC E.c. ATTC 35218” value (E. coli (ATCC 35218)) was 1.6 µM (≈ 4.38 µg/mL).
For `C[C@H]1COc2c(N3CCN(C)CC3)c(F)cc3c(=O)c(C(=O)O)cn1c23` [levofloxacin], the “MBCs compared with the NCR169 peptide derivatives” value [10] is listed as “either similar or 200-fold higher”.
In the case of `CC[C@H](C)[C@H](NC(=O)[C@H](CCCCN)NC(=O)[C@H](Cc1ccccc1)NC(=O)[C@H](CC(C)C)NC(=O)[C@@H]1CCCN1C(=O)[C@H](CCCCN)NC(=O)[C@H](CCCCN)NC(=O)[C@H](CO)NC(=O)[C@@H](N)CCCCN)C(=O)N[C@@H](C)C(=O)N[C@@H](CCCCN)C(=O)N[C@@H](CS)C(=O)N[C@H](C(=O)N[C@@H](CCC(=O)O)C(=O)N[C@@H](CC(N)=O)C(=O)N[C@H](C(=O)N[C@@H](CS)C(=O)N[C@H](C(=O)N[C@@H](CC(C)C)C(=O)N[C@@H](C)C(=O)N[C@@H](Cc1ccc(O)cc1)C(=O)N[C@@H](CCCCN)C(N)=O)C(C)C)C(C)C)C(C)C` [NCR169C17–38W10,20/A] (H-KSKKPLFKIAKCVENVCVLAYK-NH2; N-terminus assumed), the “antifungal activity against different Candida species” value (Candida species) is listed as “possess antifungal activity”, the “Minimal bactericidal concentration (MBC) K. p.” value [2] is listed as 12.5 µM (≈ 31.4 µg/mL) and the “Minimal bactericidal concentration (MBC) E. c.” value ([3]; ATCC 8739, 3 h, pH 7.4) is listed as 3.1 µM (≈ 7.78 µg/mL). The “Minimal bactericidal concentration (MBC) A. b.” value [4] was 3.1 µM (≈ 7.78 µg/mL), the “Minimal bactericidal concentration (MBC) S. e.” value ([5]; Salmonella enterica ATCC 13076, ~10^7 log phase bacteria, 3 h in PPB pH 7.4, peptide 25 to 0.125 μM 2-fold series, plated on LB agar, overnight 37 °C) was “- (-: inactive up to 25 μM)” and the “Minimal bactericidal concentration (MBC) L. m.” value [6] was 25 µM (≈ 62.7 µg/mL). For the same molecule, the “Minimal bactericidal concentration (MBC) S. a.” value ([7]; Staphylococcus aureus HNCMO112011, ~10^7 log phase bacteria, 3 h in PPB pH 7.4, peptide 25 to 0.125 μM 2-fold series, plated on LB agar, overnight 37 °C) was “- (-: inactive up to 25 μM)”, the “Minimal bactericidal concentration (MBC) P. a.” value [8] was 3.1 µM (≈ 7.78 µg/mL) and the “Minimal bactericidal concentration (MBC) E. f.” value [9] was “- (-: inactive up to 25 μM)”.
In the case of `CC1(C)S[C@@H]2[C@H](NC(=O)C(C(=O)O)c3ccccc3)C(=O)N2[C@H]1C(=O)O` (stereo partly drawn) [carbenicillin], the “MBCs compared with the NCR169 peptide derivatives” value [10] is listed as 2–4 fold.

Reference: paper PMC9917201, “Enhanced Antibacterial Activity of Substituted Derivatives of NCR169C Peptide” (International Journal of Molecular Sciences, 2023)
